From patent publication US9938258B2 (Karyopharm Therapeutics Inc., priority 2012, dated 2018)

Columns and labels:
3T3 cells = test: MTT cell proliferation assay, 3T3; type: cell-based, mouse; conditions: Mus musculus, NIH3T3, 3T3 cells; eight concentrations 1 nM to 30 μM; incubation approximately 64-72 hours; read-out: MTT Assay IC50, 3T3
Procedure: (§1) The MTT cell proliferation assay was used to study the cytotoxic properties of the compounds. The assay was performed according to the method described by Roche Molecular Biochemicals, with minor modifications. The assay is based on the cleavage of the tetrazolium salt, MTT, in the presence of an electron-coupling reagent. The water-insoluble formazan salt produced must be solubilized in an additional step. Cells grown in a 96-well tissue culture plate were incubated with the MTT solution for approximately 4 hours. After this incubation period, a water-insoluble formazan dye formed. After solubilization, the formazan dye was quantitated using a scanning multi-well spectrophotometer (ELISA reader). […] The cells were seeded at 5,000-10,000 cells in each well of 96-well plate in 100 μL of fresh culture medium and were allowed to attach overnight. The stock solutions of the compounds were diluted in 100 μL cell culture medium to obtain eight concentrations of each test compound, ranging from 1 nM to 30 μM. […] All optical densities were measured at 490 nm using a Vmax Kinetic Microplate Reader (Molecular Devices). In most cases, the assay was performed in duplicate and the results were presented as a mean percent inhibition to the negative control±SE. The following formula was used to calculate the percent of inhibition: Inhibition (%)=(1-(ODo/OD)) ×100.
(§2) The compounds were tested against MS751, Z138 and 3T3 cells. The MS751 cell line is derived from a metastasis to lymph node of human cervix from a patient diagnosed with squameous cell carcinoma of the cervix. The Z138 cell line is a mature B-cell acute lymphoblastic leukemia cell line derived from a patient with chronic lumphocytic leukemia. 3T3 cells are standard fibroblast cells; they were originally isolated from Swiss mouse embryo tissue.

MS751 cells = test: MTT cell proliferation assay, MS751; type: cell-based, human; conditions: Homo sapiens, MS751, MS751 cells; eight concentrations 1 nM to 30 μM; incubation approximately 64-72 hours; read-out: MTT Assay IC50, MS751
Procedure: as §1, §2

Z138 cells = test: MTT cell proliferation assay, Z138; type: cell-based; conditions: Homo sapiens, Z-138, Z138 cells; eight concentrations 1 nM to 30 μM; incubation approximately 64-72 hours; read-out: MTT Assay IC50, Z138
Procedure: as §1, §2

## O=C(/C=C/c1cccnc1)NCC1Cc2cc(-c3ccc(C(=O)O)cc3)cc(Cl)c2O1 (stereo not drawn) [Compound 129, (E)-4-(7-chloro-2-((3-(pyridin-3-yl)acrylamido)methyl)-2,3-dihydrobenzofuran-5-yl)benzoic acid]
3T3 cells
  IC50: 5 to 30 µM
MS751 cells
  IC50: 5 to 30 µM
Z138 cells
  IC50: 5 to 30 µM

## CC(=O)c1ccc(-c2cc(C)c3c(c2)CC(CNC(=O)/C=C/c2cccnc2)O3)s1 (stereo not drawn) [Compound 138, (E)-N-((5-(5-acetylthiophen-2-yl)-7-methyl-2,3-dihydrobenzofuran-2-yl)methyl)-3-(pyridin-3-yl)acrylamide]
3T3 cells
  IC50: 0.1 to 5 µM
MS751 cells
  IC50: < 0.1 µM
Z138 cells
  IC50: < 0.1 µM

## CC(=O)c1ccc(-c2cc(Cl)c3c(c2)CC(CNC(=O)/C=C/c2ccc(C)nc2)O3)s1 (stereo not drawn) [Compound 146, (E)-N-((5-(5-acetylthiophen-2-yl)-7-chloro-2,3-dihydrobenzofuran-2-yl)methyl)-3-(6-methylpyridin-3-yl)acrylamide]
3T3 cells
  IC50: > 30 µM
MS751 cells
  IC50: 5 to 30 µM
Z138 cells
  IC50: > 30 µM

## CC(=O)c1ccc(-c2cc(Cl)c3c(c2)CC(CNC(=O)/C=C/c2c(C)noc2C)O3)s1 (stereo not drawn) [Compound 147, (E)-N-((5-(5-acetylthiophen-2-yl)-7-chloro-2,3-dihydrobenzofuran-2-yl)methyl)-3-(3,5-dimethylisoxazol-4-yl)acrylamide]
3T3 cells
  IC50: > 30 µM
MS751 cells
  IC50: 0.1 to 5 µM
Z138 cells
  IC50: 0.1 to 5 µM

## CC(=O)c1ccc(-c2cc(Cl)c3c(c2)CC(CNC(=O)/C=C/c2cnc(C)s2)O3)s1 (stereo not drawn) [Compound 148, (E)-N-((5-(5-acetylthiophen-2-yl)-7-chloro-2,3-dihydrobenzofuran-2-yl)methyl)-3-(2-methylthiazol-5-yl)acrylamide]
3T3 cells
  IC50: > 30 µM
MS751 cells
  IC50: 5 to 30 µM
Z138 cells
  IC50: > 30 µM

## CC(=O)c1ccc(-c2cc(Cl)c3c(c2)CC(CNC(=O)/C=C/c2cnn(C)c2)O3)s1 (stereo not drawn) [Compound 149, (E)-N-((5-(5-acetylthiophen-2-yl)-7-chloro-2,3-dihydrobenzofuran-2-yl)methyl)-3-(1-methyl-1H-pyrazol-4-yl)acrylamide]
3T3 cells
  IC50: > 30 µM
MS751 cells
  IC50: > 30 µM
Z138 cells
  IC50: > 30 µM

## CC(=O)c1ccc(-c2cc(Cl)c3c(c2)CC(CNC(=O)/C=C/c2ccc(C)o2)O3)s1 (stereo not drawn) [Compound 150, (E)-N-((5-(5-acetylthiophen-2-yl)-7-chloro-2,3-dihydrobenzofuran-2-yl)methyl)-3-(5-methylfuran-2-yl)acrylamide]
3T3 cells
  IC50: > 30 µM
MS751 cells
  IC50: > 30 µM
Z138 cells
  IC50: > 30 µM

## CC(=O)c1ccc(-c2cc(Cl)c3c(c2)CC(CNC(=O)/C=C/c2cnc4ccccc4n2)O3)s1 (stereo not drawn) [Compound 151, (E)-N-((5-(5-acetylthiophen-2-yl)-7-chloro-2,3-dihydrobenzofuran-2-yl)methyl)-3-(quinoxalin-2-yl)acrylamide]
3T3 cells
  IC50: > 30 µM
MS751 cells
  IC50: > 30 µM
Z138 cells
  IC50: > 30 µM

## CC(=O)c1ccc(-c2cc(Cl)c3c(c2)CC(CNC(=O)/C=C/c2sccc2C)O3)s1 (stereo not drawn) [Compound 152, (E)-N-((5-(5-acetylthiophen-2-yl)-7-chloro-2,3-dihydrobenzofuran-2-yl)methyl)-3-(3-methylthiophen-2-yl)acrylamide]
3T3 cells
  IC50: > 30 µM
MS751 cells
  IC50: > 30 µM
Z138 cells
  IC50: > 30 µM

## CC(=O)c1ccc(-c2cc(Cl)c3c(c2)CC(CNC(=O)/C=C/c2cc[nH]c2)O3)s1 (stereo not drawn) [Compound 153, (E)-N-((5-(5-acetylthiophen-2-yl)-7-chloro-2,3-dihydrobenzofuran-2-yl)methyl)-3-(1H-pyrrol-3-yl)acrylamide]
3T3 cells
  IC50: > 30 µM
MS751 cells
  IC50: > 30 µM
Z138 cells
  IC50: > 30 µM

## CC(=O)c1ccc(-c2cc(Cl)c3c(c2)CC(CNC(=O)/C=C/c2c(C)nn(CC(C)C)c2Cl)O3)s1 (stereo not drawn) [Compound 154, (E)-N-((5-(5-acetylthiophen-2-yl)-7-chloro-2,3-dihydrobenzofuran-2-yl)methyl)-3-(5-chloro-1-isobutyl-3-methyl-1H-pyrazol-4-yl)acrylamide]
3T3 cells
  IC50: > 30 µM
MS751 cells
  IC50: > 30 µM
Z138 cells
  IC50: > 30 µM
